Measured values taken from article PMC3711766 (The Journal of neuroscience : the official journal of the …, 2013).
Read-outs that look alike come from different tables or passages of the source. Where a SMILES comes first, the peptide text is derived from it. [ ]: non-standard residue; d: D form. The star is where a group is joined. X1 = CN1c2cc3c(cc2C(CS(=O)(=O)[O-])=CC1(C)C)C(c1ccc(C(=O)NCCCCCN2C(=O)CC(*)C2=O)cc1C(=O)O)=c1cc2c(cc1O3)=[N+](C)C(C)(C)C=C2CS(=O)(=O)O

Tests used:
FLAG-MOR [1] = biological target: T1, FLAG-MOR (Mus musculus, UniProt P42866); experiment: Steady state binding of derm A594 in live FLAG-MOR HEK 293 cells
T1 sequence (P42866 whole entry): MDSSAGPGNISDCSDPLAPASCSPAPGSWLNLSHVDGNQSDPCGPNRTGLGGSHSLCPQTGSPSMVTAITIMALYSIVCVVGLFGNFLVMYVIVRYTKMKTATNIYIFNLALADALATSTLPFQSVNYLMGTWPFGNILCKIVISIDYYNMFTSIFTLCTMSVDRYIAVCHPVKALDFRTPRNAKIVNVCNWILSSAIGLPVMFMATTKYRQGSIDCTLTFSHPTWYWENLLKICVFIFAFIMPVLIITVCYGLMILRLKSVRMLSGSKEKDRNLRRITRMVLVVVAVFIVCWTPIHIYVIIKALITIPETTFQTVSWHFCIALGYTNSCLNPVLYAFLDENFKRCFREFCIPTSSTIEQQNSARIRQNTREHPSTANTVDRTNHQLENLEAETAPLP

FLAG-MOR [2] = biological target: T1, FLAG-MOR; assay type: binding; conditions: derm A594 200 nM; ME 30 µM 2 hrs, then ME 3 µM pre pulse
FLAG-MOR [3] = biological target: T1, FLAG-MOR; assay type: binding
FLAG-MOR [4] = biological target: T1, FLAG-MOR; experiment: Binding and unbinding kinetics of derm A594 in live FLAG-MOR HEK 293 cells; conditions: for average time constant of association: derm A594 30 nM
FLAG-MOR [5] = biological target: T1, FLAG-MOR; assay type: binding; remark: listed apart in the source
FLAG-MOR [6] = biological target: T1, FLAG-MOR; assay type: cell-based; conditions: ME 1 µM, 5 sec; pertussis toxin 100 ng/mL overnight

How did the “Hill slope of steady state binding” value (FLAG-MOR [1]; after ME 30 µM 2 hrs) turn out when `C[C@@H](NC(=O)[C@@H](N)Cc1ccc(O)cc1)C(=O)N[C@@H](Cc1ccccc1)C(=O)NCC(=O)N[C@@H](Cc1ccc(O)cc1)C(=O)N1CCC[C@H]1C(=O)N[C@@H](CCCCN)C(=O)N[C@@H](CSC1CC(=O)N(CCCCCNC(=O)c2ccc(C3=c4cc5c(cc4Oc4cc6c(cc43)C(CS(=O)(=O)[O-])=CC(C)(C)N6C)=[N+](C)C(C)(C)C=C5CS(=O)(=O)O)c(C(=O)O)c2)C1=O)C(N)=O` (stereo partly drawn) [derm A594, dermorphin Alexa 594] (H-Y[dA]FGYPKC(X1)-NH2; N-terminus assumed) was run?
Its value is 1.03±0.3.

And the “Hill slope of steady state binding” value (FLAG-MOR [1]; untreated live cells)?
Its value is 0.95±.02.

What about the “relative amount of derm A594 bound after 1 min (R/G)” value (FLAG-MOR [2]) of the same molecule?
The value was 0.95±0.08.

And the “fraction derm A594 remaining after 3 min” value (FLAG-MOR [3]; WT MEF cells, untreated)?
The value was 0.09±0.01.

What about the “fraction derm A594 remaining after 3 min” value (FLAG-MOR [3]; β-arr 1/2 k.o. MEF cells, untreated) of the same molecule?
Its value is 0.13±0.02.

What about the kon (FLAG-MOR [4]) of the same molecule?
Its kon is 353000 M⁻¹ s⁻¹.

And the “decrease of koff after ME treatment” value (FLAG-MOR [4]; ME 30 µM 2 hr vs untreated)?
Its value is “approximately 6 fold”.

And the “decrease of kon after ME treatment” value (FLAG-MOR [4]; ME 30 µM 2 hr vs untreated)?
Its value is “about 40%”.

And the “average time constant of association” value (FLAG-MOR [4]; ME treated cells (30 µM 2 hr))?
Its value is 51.5 ± 7.8 s.

What about the “average time constant of association” value (FLAG-MOR [4]; untreated cells) of the same molecule?
Its value is 11.4 ± 0.4 s.

And the “time constant of dissociation from the receptor” value (FLAG-MOR [4]; live cells)?
The value was ~10 s.

What about the koff (FLAG-MOR [4]; read-out: koff (intercept of linear fit)) of the same molecule?
The koff was 0.011 s⁻¹.

Which “fraction derm A594 remaining after 3 min” value (FLAG-MOR [5]) does the source give for `COc1ccc2c3c1O[C@H]1C(=O)CC[C@@]4(O)[C@@H](C2)N(C)CC[C@]314` [oxycodone] here?
The value was 0.23±0.01.

How did the GIRK current (FLAG-MOR [6]) turn out when pertussis toxin [reference compound] was run?
Its GIRK current is 3.3±6.8 pA.

What about the “fraction derm A594 remaining after 3 min” value (FLAG-MOR [3]; β-arr 1/2 k.o. MEF cells, pertussis toxin 100 ng/ml overnight, no ME) of the same molecule?
The value was 0.12±0.02.
